Source: patent US20200370102A1, “BIOMARKER INDICATING RESPONSE TO POZIOTINIB THERAPY FOR CANCER” (HANMI PHARM. CO., LTD., priority 2017, published 2020)

How the values were obtained:
[1] = test system: cancer cells having overexpression of Her1 or Her2 or activated mutations; conditions: in vitro, various carcinomas; cited from earlier work
[2] = test system: lung cancer cells resistant to gefitinib or erlotinib; conditions: cited from earlier work
[3] = test system: EGFR family including Her1, Her2, and Her4; conditions: cited from earlier work
[4] = test system: HER2-positive metastatic breast cancer; experiment: open-label, multicenter study of poziotinib monotherapy in breast cancer patients, with genotype (NGS) analysis; format: in vivo, human
Description: Poziotinib is a pan-HER inhibitor small molecule breast cancer therapeutic agent under clinical development. […] Recently, through an open-label, multicenter, two-phase study of poziotinib monotherapy, it was evaluated whether poziotinib was an option for breast cancer patients with HER2-positive metastatic breast cancer who twice or more experienced the failure of 2 HER2 target treatments. The genetic profile of HER2-positive metastatic breast cancer was evaluated, and the potential biomarkers of poziotinib for HER2-positive metastatic breast cancer (MBC) were investigated.
The experimental method is as follows. All participants with MBC were diagnosed with HER2-positive metastatic breast cancer according to the American Society of Clinical Oncology/College of-American Pathologist Her2 guideline. Fresh tissue samples or FFPE samples were obtained from these patients and used to extract DNA and RNA for next generation sequencing (NGS).
DNA and RNA were extracted from the samples and NGS was performed thereon. Targeted deep sequencing was performed by using a customized 381 cancer gene panel (CancerSCAN™, Samsung Hospital, Inc.) and the correlation among sequencing data, immunohistochemistry, and clinical outcome was analyzed.
An effective amount of poziotinib was administered to the breast cancer patients. The prognosis of the patients was observed. Prognosis was classified into partial remission (PR), stable disease (SD), and progressive disease (PD). For each patient, progressive free survival (PFS) was also identified.
From April 2015 to February 2016, 106 patients enrolled for clinical trials. Biomarker data were available for 75 of these patients.

transplanted tumor cells = conditions: xenotransplantation animal model; cited from earlier work
[5] = among the 75 patients with biomarker data

C=CC(=O)N1CCC(Oc2cc3c(Nc4ccc(Cl)c(Cl)c4F)ncnc3cc2OC)CC1 [Poziotinib, 1-[4-[4-(3,4-dichloro-2-fluoroanilino)-7-methoxyquinazolin-6-yl]oxypiperidin-1-yl]prop-2-en-1-one]
growth of cancer cells [1]: inhibits the growth of cancer cells | growth of lung cancer cells [2]: effectively inhibits the growth | inhibition of the EGFR family [3]: selectively and irreversibly inhibits | prognosis after poziotinib by genotype ([4]; BARD1 gene mutation present (mutation number=9)): poor prognosis | prognosis after poziotinib by genotype ([4]; CDK12 copy number amplification (42 subjects)): good prognosis | prognosis after poziotinib by genotype ([4]; ERBB3 gene mutation present (mutation number=10)): poor prognosis | prognosis after poziotinib by genotype ([4]; NOTCH gene mutation present (mutation number=13)): good prognosis | prognosis after poziotinib by genotype ([4]; PIK3CA gene mutation present (mutation number=34)): poor prognosis | prognosis after poziotinib by genotype ([4]; SETBP1 gene mutation present (mutation number=13)): poor prognosis | prognosis after poziotinib by genotype ([4]; SH2B3 gene mutation present (mutation number=6)): good prognosis | number of patients with partial remission (PR) [4, 5]: 14 | number of patients with progressive disease (PD) [4, 5]: 20 | prognosis after poziotinib by genotype ([4]; copy number amplification of the ERBB2 gene): good prognosis | prognosis after poziotinib by genotype ([4]; copy number deletion of the BRCA1 gene): bad prognosis | prognosis after poziotinib by genotype ([4]; copy number deletion of the STAT3 gene): bad prognosis | prognosis after poziotinib by genotype ([4]; deletion or amplification of the FGFR3 gene (copy number variations=5)): bad prognosis | prognosis of patients with ERBB2 gene or upstream mutations ([4]; patients 1 to 10 of the 13 patients with ERBB2 mutations, FIG. 13): partial remission and stable disease | tumor growth (transplanted tumor cells): effectively blocks tumor growth
